These molecules were tested against T1, TcCAT1.1 (Trypanosoma cruzi, UniProt A0A0H4FPU8) (assay: competition of [3H]-arginine uptake in transformed S. cerevisiae). Conditions: 1000 µM; 10 µM [3H]-arginine, 1 mM competitor, 30 min, room temperature.
T1 construct: gene C3747_66g20; full-length ORF, untagged, pYES2, expressed in S. cerevisiae HSC100-3C (can1 gap1 lyp1); 10 predicted transmembrane helices
T1 sequence (A0A0H4FPU8 1-448): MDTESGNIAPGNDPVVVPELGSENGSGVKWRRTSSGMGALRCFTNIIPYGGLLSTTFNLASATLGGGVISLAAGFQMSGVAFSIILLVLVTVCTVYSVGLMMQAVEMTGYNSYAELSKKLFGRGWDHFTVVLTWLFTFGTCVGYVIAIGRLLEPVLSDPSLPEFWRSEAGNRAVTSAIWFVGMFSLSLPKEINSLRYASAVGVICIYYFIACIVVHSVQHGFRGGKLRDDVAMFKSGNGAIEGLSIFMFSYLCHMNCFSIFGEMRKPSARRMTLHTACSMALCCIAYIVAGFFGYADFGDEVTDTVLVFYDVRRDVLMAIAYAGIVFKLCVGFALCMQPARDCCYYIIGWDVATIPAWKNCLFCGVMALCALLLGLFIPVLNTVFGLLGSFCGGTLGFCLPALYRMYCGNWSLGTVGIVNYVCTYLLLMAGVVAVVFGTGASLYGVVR
Assay type: cell-based
Text: competition of [3H]-arginine uptake in transformed S. cerevisiae on TcCAT1.1

| Molecule | [^3H]-Arginine uptake(%) |
| --- | --- |
| N[C@@H](Cc1cnc[nH]1)C(=O)O [histidine] | 67.3 ± 8.8% |
| C[C@H](N)C(=O)O [alanine] | 67.9 ± 2.6% |
| O=C(O)[C@@H]1CCCN1 [proline] | 72.3 ± 12.1% |
| NC(=O)CC[C@H](N)C(=O)O [glutamine] | 74.2 ± 25.6% |
| NC(=O)C[C@H](N)C(=O)O [asparagine] | 78.0 ± 6.1% |
| NCCCNCCCCNCCCN [spermine] | 65.0 ± 6.6% |
| N=C(N)NCCCC[C@H](N)C(=O)O [homoarginine] | 65.5 ± 12.1% |
| CC(C)C[C@H](N)C(=O)O [leucine] | 67.7 ± 16.2% |
| NCCCC[C@H](N)C(=O)O [lysine] | 78.0 ± 26.7% |

Same assay, conditions: 1000 µM; 10 µM [3H]-arginine, 1 mM competitor, 30 min, room temperature; possible substrate

| Molecule | [^3H]-Arginine uptake(%) |
| --- | --- |
| N=C(N)NOCC[C@H](N)C(=O)O [canavanine] | 28.9 ± 6.3% |

The molecules below were run on N=C(N)NCCC[C@H](N)C(=O)O (assay: radiolabelled uptake in transformed S. cerevisiae, Michaelis-Menten fit). Conditions: labelled compound; glucose-repressed background subtracted; three trials.
Assay type: cell-based, Trypanosoma cruzi
Text: radiolabelled uptake in transformed S. cerevisiae, Michaelis-Menten fit on TcCAT1.1

| Molecule | Km |
| --- | --- |
| TcCAT1.1 (Trypanosoma cruzi) (protein, full-length ORF, untagged, pYES2, expressed in S. cerevisiae HSC100-3C (can1 gap1 lyp1); 10 predicted transmembrane helices) MDTESGNIAPGNDPVVVPELGSENGSGVKWRRTSSGMGALRCFTNIIPYGGLLSTTFNLASATLGGGVISLAAGFQMSGVAFSIILLVLVTVCTVYSVGLMMQAVEMTGYNSYAELSKKLFGRGWDHFTVVLTWLFTFGTCVGYVIAIGRLLEPVLSDPSLPEFWRSEAGNRAVTSAIWFVGMFSLSLPKEINSLRYASAVGVICIYYFIACIVVHSVQHGFRGGKLRDDVAMFKSGNGAIEGLSIFMFSYLCHMNCFSIFGEMRKPSARRMTLHTACSMALCCIAYIVAGFFGYADFGDEVTDTVLVFYDVRRDVLMAIAYAGIVFKLCVGFALCMQPARDCCYYIIGWDVATIPAWKNCLFCGVMALCALLLGLFIPVLNTVFGLLGSFCGGTLGFCLPALYRMYCGNWSLGTVGIVNYVCTYLLLMAGVVAVVFGTGASLYGVVR | 85 ± 40 µM |

Reference: paper PMC4486710 (Parasites & Vectors, 2015)
